Assay results reported in paper PMC2248166, “Quantitative peptide binding motifs for 19 human and mouse MHC class I molecules derived using positional scanning combinatorial peptide libraries” (Immunome Research, 2008).

Columns and labels:
[1] = target: HLA B*5101 (Homo sapiens, UniProt P01889, A329T/A93T/A95T/C349S/D138N/D201E/D98Y/E187L/E204Q/E69T/G107R/I218V/K202T/L105A/L119W/N104I/Q94N/R106L/R155S/R180L/S101N/S121T/S35A/S48A/V306I/V36M/Y195H/Y91F); type: binding
[2] = target: HLA B*0702 (Homo sapiens, UniProt P01889); type: binding; details: positional scanning combinatorial 9-mer library; normalized to 1.0 for the best residue at each position
[3] = target: HLA A*6802 (Homo sapiens, UniProt P04439, A269V/D140Y/D185E/E176V/E277Q/E87N/F33Y/G231S/I121R/I166T/I218V/L180W/L300P/L318F/N151K/P208A/P217A/Q86R/R138H/R169H/S129P/T345S/V36M); type: binding
[4] = target: HLA B*5301 (Homo sapiens, UniProt P01889, A329T/A93T/A95T/C349S/D201E/D98Y/E176V/E187L/E204Q/E69T/G107R/I218V/K202T/L105A/L119I/N104I/Q94N/R106L/R155S/R180L/S101N/S121R/S35A/S48A/T118I/V127L/V306I/V36M/Y140S/Y91F); type: binding
[5] = target: HLA B*2705 (Homo sapiens, UniProt P01889, D138H/D201E/E176V/E204Q/G107R/H137Y/K202T/N104T/N87E/Q56L/Q94K/R106L/R155S/R180L/S101D/S121N/S48T/Y140D/Y33H/Y91C); type: binding; details: positional scanning combinatorial 9-mer library; normalized to 1.0 for the best residue at each position
[6] = target: H-2 D^b (Mus musculus, UniProt P01899); type: binding
Chain of H-2 D^b (P01887 21-119): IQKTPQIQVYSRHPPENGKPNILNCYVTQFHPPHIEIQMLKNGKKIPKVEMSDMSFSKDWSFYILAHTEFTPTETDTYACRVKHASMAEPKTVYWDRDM
Chain of H-2 D^b (P01899 25-362): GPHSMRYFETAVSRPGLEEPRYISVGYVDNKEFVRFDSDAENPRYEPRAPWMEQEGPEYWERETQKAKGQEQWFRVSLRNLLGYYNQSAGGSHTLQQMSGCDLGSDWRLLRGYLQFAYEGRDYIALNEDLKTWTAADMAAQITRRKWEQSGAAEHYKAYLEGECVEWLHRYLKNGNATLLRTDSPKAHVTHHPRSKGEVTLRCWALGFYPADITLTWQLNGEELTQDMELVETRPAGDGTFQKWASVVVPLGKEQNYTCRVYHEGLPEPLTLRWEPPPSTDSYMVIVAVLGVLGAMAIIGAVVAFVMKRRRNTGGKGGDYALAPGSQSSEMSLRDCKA

[7] = target: HLA A*3001 (Homo sapiens, UniProt P04439, D140H/D185E/E176W/F33S/G80R/H175R/K168Q/R138E/R41S); experiment: biochemical; type: binding
[8] = target: HLA B*5801 (Homo sapiens, UniProt P01889, A329T/C349S/D201E/D98Y/E176V/E187L/E204Q/E69T/G107R/I218V/I90N/K202T/L105A/L119I/N104I/N87E/Q89R/Q94S/R106L/R155S/R180L/R86G/S101N/S121R/S35A/S48A/T118I/V127L/V306I/V36M/Y140S/Y91M); type: binding
[9] = target: HLA B*1501 (Homo sapiens, UniProt P01889, A329T/A93T/A95T/C349S/D201E/D98Y/E187L/E204Q/E69M/E70A/K202T/N87E/Q94N/R155S/R180W/S121R/S35A/S48A/V306I/V36M/Y140S/Y91S); experiment: biochemical; type: binding
[10] = target: HLA B*0801 (Homo sapiens, UniProt P01889, A93T/A95T/D138N/E176V/E187T/K202T/Q94N/R180D/S35A/V36M/Y33D/Y91F); experiment: biochemical; type: binding
[11] = target: HLA B*3501 (Homo sapiens, UniProt P01889, A329T/A93T/A95T/C349S/D201E/D98Y/E176V/E187L/E204Q/E69T/I218V/K202T/L119I/Q94N/R155S/R180L/S121R/S35A/S48A/T118I/V127L/V306I/V36M/Y140S/Y91F); type: binding
[12] = target: HLA B*5401 (Homo sapiens, UniProt P01889, A329T/C349S/D138N/D201E/E176V/E187T/E204Q/E69G/I76V/K202T/L119W/R155S/R180L/S121T/S35A/S48A/V127L/V306I/V36M/Y140L); type: binding
[13] = target: H-2 K^k (Mus musculus, UniProt P04223); type: binding
Chain of H-2 K^k (P01887 21-119): as the sequence (P01887 21-119) above
Chain of H-2 K^k (P04223 22-369): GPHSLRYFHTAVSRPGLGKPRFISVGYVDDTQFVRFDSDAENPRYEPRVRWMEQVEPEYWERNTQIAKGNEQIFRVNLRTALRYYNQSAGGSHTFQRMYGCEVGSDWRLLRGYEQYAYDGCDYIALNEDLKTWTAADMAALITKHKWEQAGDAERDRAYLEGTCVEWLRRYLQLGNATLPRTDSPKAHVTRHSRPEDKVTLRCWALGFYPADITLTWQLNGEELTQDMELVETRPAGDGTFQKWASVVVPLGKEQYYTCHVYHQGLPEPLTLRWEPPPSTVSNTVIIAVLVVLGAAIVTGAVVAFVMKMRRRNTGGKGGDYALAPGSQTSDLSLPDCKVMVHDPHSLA

[14] = target: HLA A*3201 (Homo sapiens, UniProt P04439, A270S/D101S/D185E/E176V/E277Q/F133L/G103R/G107R/G231S/H175R/I121M/I218V/I322F/K168Q/L105A/L300P/L318F/M331R/P208A/P217A/Q94H/R106L/R138Q/S129P/T104I/T323A/T345S/V100E/V321M/V358M); experiment: biochemical; type: binding
[15] = target: H-2 D^d (Mus musculus, UniProt P01900); type: binding
Chain of H-2 D^d (P01900 whole entry, looked up): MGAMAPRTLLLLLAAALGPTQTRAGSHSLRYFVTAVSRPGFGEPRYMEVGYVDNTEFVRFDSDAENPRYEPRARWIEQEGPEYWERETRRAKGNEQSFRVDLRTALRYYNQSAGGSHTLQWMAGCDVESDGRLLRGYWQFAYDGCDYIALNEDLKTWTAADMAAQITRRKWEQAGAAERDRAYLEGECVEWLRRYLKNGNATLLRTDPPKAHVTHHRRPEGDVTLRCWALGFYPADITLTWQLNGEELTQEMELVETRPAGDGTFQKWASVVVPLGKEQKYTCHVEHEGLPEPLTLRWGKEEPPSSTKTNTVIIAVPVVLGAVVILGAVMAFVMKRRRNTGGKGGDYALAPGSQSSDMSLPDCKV

[16] = target: HLA B*1503 (Homo sapiens, UniProt P01889, A329T/A93T/A95T/C349S/D201E/D98Y/E187L/E204Q/K202T/N87E/Q94N/R155S/R180L/S121R/S35A/V306I/V36M/Y140S/Y91S); experiment: biochemical; type: binding
[17] = target: HLA B*5802 (Homo sapiens, UniProt P01889, A329T/C349S/D201E/D98Y/E176V/E187L/E204Q/E69T/G107R/I218V/I90N/K202T/L105A/N104I/N87E/Q89R/Q94S/R106L/R155S/R180L/R86G/S101N/S121W/S35A/S48A/V127L/V306I/V36M/Y140S/Y91M); type: binding
[18] = target: HLA A*0201 (Homo sapiens, UniProt P04439, D140Y/D185E/D98H/E176V/E277Q/G131W/G231S/I119V/I121R/I166T/I218V/L300P/L318F/N151K/N90K/P208A/P217A/Q86G/Q94H/R138H/R169H/T345S); details: positional scanning combinatorial 9-mer library; normalized to 1.0 for the best residue at each position

XXAXXXXXX [3064.0041]
Normalized average relative binding affinity (ARB), HLA B*5101 [1]: 0.47
Normalized average relative binding affinity (ARB), HLA B*0702 [2]: 0.0097
Normalized average relative binding affinity (ARB), HLA A*6802 [3]: 0.0051
Normalized average relative binding affinity (ARB), HLA B*5301 [4]: 0.0065
Normalized average relative binding affinity (ARB), HLA B*2705 [5]: 0.21
Normalized average relative binding affinity (ARB), H-2 Db [6]: 0.022
Normalized average relative binding affinity (ARB), HLA A*3001 [7]: 0.0077
Normalized average relative binding affinity (ARB), HLA B*5801 [8]: 0.32
Normalized average relative binding affinity (ARB), HLA B*1501 [9]: 0.23
Normalized average relative binding affinity (ARB), HLA B*0801 [10]: 0.12
Normalized average relative binding affinity (ARB), HLA B*3501 [11]: 0.19
Normalized average relative binding affinity (ARB), HLA B*5401 [12]: 0.00077
Normalized average relative binding affinity (ARB), H-2 Kk [13]: 0.0061
Normalized average relative binding affinity (ARB), HLA A*3201 [14]: 0.24
Normalized average relative binding affinity (ARB), H-2 Dd [15]: 0.0028
Normalized average relative binding affinity (ARB), HLA B*1503 [16]: 0.29
Normalized average relative binding affinity (ARB), HLA B*5802 [17]: 0.047
Normalized average relative binding affinity (ARB), HLA A*0201 [18]: 0.43

XXCXXXXXX [3064.0042]
Normalized average relative binding affinity (ARB), HLA B*5101 [1]: 0.24
Normalized average relative binding affinity (ARB), HLA B*0702 [2]: 0.047
Normalized average relative binding affinity (ARB), HLA A*6802 [3]: 0.071
Normalized average relative binding affinity (ARB), HLA B*5301 [4]: 0.0065
Normalized average relative binding affinity (ARB), HLA B*2705 [5]: 0.14
Normalized average relative binding affinity (ARB), H-2 Db [6]: 0.098
Normalized average relative binding affinity (ARB), HLA A*3001 [7]: 0.0048
Normalized average relative binding affinity (ARB), HLA B*5801 [8]: 0.11
Normalized average relative binding affinity (ARB), HLA B*1501 [9]: 0.35
Normalized average relative binding affinity (ARB), HLA B*0801 [10]: 0.020
Normalized average relative binding affinity (ARB), HLA B*3501 [11]: 0.074
Normalized average relative binding affinity (ARB), HLA B*5401 [12]: 0.015
Normalized average relative binding affinity (ARB), H-2 Kk [13]: 0.15
Normalized average relative binding affinity (ARB), HLA A*3201 [14]: 0.32
Normalized average relative binding affinity (ARB), H-2 Dd [15]: 0.0028
Normalized average relative binding affinity (ARB), HLA B*1503 [16]: 0.048
Normalized average relative binding affinity (ARB), HLA B*5802 [17]: 0.37
Normalized average relative binding affinity (ARB), HLA A*0201 [18]: 0.22

XXDXXXXXX [3064.0043]
Normalized average relative binding affinity (ARB), HLA B*5101 [1]: 0.070
Normalized average relative binding affinity (ARB), HLA B*0702 [2]: 0.031
Normalized average relative binding affinity (ARB), HLA A*6802 [3]: 0.025
Normalized average relative binding affinity (ARB), HLA B*5301 [4]: 0.096
Normalized average relative binding affinity (ARB), HLA B*2705 [5]: 0.020
Normalized average relative binding affinity (ARB), H-2 Db [6]: 0.022
Normalized average relative binding affinity (ARB), HLA A*3001 [7]: 0.0018
Normalized average relative binding affinity (ARB), HLA B*5801 [8]: 0.11
Normalized average relative binding affinity (ARB), HLA B*1501 [9]: 0.039
Normalized average relative binding affinity (ARB), HLA B*0801 [10]: 0.015
Normalized average relative binding affinity (ARB), HLA B*3501 [11]: 0.11
Normalized average relative binding affinity (ARB), HLA B*5401 [12]: 0.0033
Normalized average relative binding affinity (ARB), H-2 Kk [13]: 0.059
Normalized average relative binding affinity (ARB), HLA A*3201 [14]: 0.085
Normalized average relative binding affinity (ARB), H-2 Dd [15]: 0.012
Normalized average relative binding affinity (ARB), HLA B*1503 [16]: 0.032
Normalized average relative binding affinity (ARB), HLA B*5802 [17]: 0.047
Normalized average relative binding affinity (ARB), HLA A*0201 [18]: 0.46

XXEXXXXXX [3064.0044]
Normalized average relative binding affinity (ARB), HLA B*5101 [1]: 0.070
Normalized average relative binding affinity (ARB), HLA B*0702 [2]: 0.052
Normalized average relative binding affinity (ARB), HLA A*6802 [3]: 0.046
Normalized average relative binding affinity (ARB), HLA B*5301 [4]: 0.031
Normalized average relative binding affinity (ARB), HLA B*2705 [5]: 0.071
Normalized average relative binding affinity (ARB), H-2 Db [6]: 0.032
Normalized average relative binding affinity (ARB), HLA A*3001 [7]: 0.0031
Normalized average relative binding affinity (ARB), HLA B*5801 [8]: 0.095
Normalized average relative binding affinity (ARB), HLA B*1501 [9]: 0.040
Normalized average relative binding affinity (ARB), HLA B*0801 [10]: 0.034
Normalized average relative binding affinity (ARB), HLA B*3501 [11]: 0.073
Normalized average relative binding affinity (ARB), HLA B*5401 [12]: 0.0049
Normalized average relative binding affinity (ARB), H-2 Kk [13]: 0.27
Normalized average relative binding affinity (ARB), HLA A*3201 [14]: 0.14
Normalized average relative binding affinity (ARB), H-2 Dd [15]: 0.0030
Normalized average relative binding affinity (ARB), HLA B*1503 [16]: 0.044
Normalized average relative binding affinity (ARB), HLA B*5802 [17]: 0.049
Normalized average relative binding affinity (ARB), HLA A*0201 [18]: 0.037

XXFXXXXXX [3064.0045]
Normalized average relative binding affinity (ARB), HLA B*5101 [1]: 0.65
Normalized average relative binding affinity (ARB), HLA B*0702 [2]: 0.067
Normalized average relative binding affinity (ARB), HLA A*6802 [3]: 0.82
Normalized average relative binding affinity (ARB), HLA B*5301 [4]: 0.19
Normalized average relative binding affinity (ARB), HLA B*2705 [5]: 1.0
Normalized average relative binding affinity (ARB), H-2 Db [6]: 0.099
Normalized average relative binding affinity (ARB), HLA A*3001 [7]: 0.041
Normalized average relative binding affinity (ARB), HLA B*5801 [8]: 0.52
Normalized average relative binding affinity (ARB), HLA B*1501 [9]: 0.83
Normalized average relative binding affinity (ARB), HLA B*0801 [10]: 0.19
Normalized average relative binding affinity (ARB), HLA B*3501 [11]: 0.49
Normalized average relative binding affinity (ARB), HLA B*5401 [12]: 0.11
Normalized average relative binding affinity (ARB), H-2 Kk [13]: 0.39
Normalized average relative binding affinity (ARB), HLA A*3201 [14]: 0.98
Normalized average relative binding affinity (ARB), H-2 Dd [15]: 0.0072
Normalized average relative binding affinity (ARB), HLA B*1503 [16]: 0.62
Normalized average relative binding affinity (ARB), HLA B*5802 [17]: 0.41
Normalized average relative binding affinity (ARB), HLA A*0201 [18]: 0.63

XXGXXXXXX [3064.0046]
Normalized average relative binding affinity (ARB), HLA B*5101 [1]: 0.078
Normalized average relative binding affinity (ARB), HLA B*0702 [2]: 0.052
Normalized average relative binding affinity (ARB), HLA A*6802 [3]: 0.061
Normalized average relative binding affinity (ARB), HLA B*5301 [4]: 0.046
Normalized average relative binding affinity (ARB), HLA B*2705 [5]: 0.17
Normalized average relative binding affinity (ARB), H-2 Db [6]: 0.13
Normalized average relative binding affinity (ARB), HLA A*3001 [7]: 0.0022
Normalized average relative binding affinity (ARB), HLA B*5801 [8]: 0.12
Normalized average relative binding affinity (ARB), HLA B*1501 [9]: 0.14
Normalized average relative binding affinity (ARB), HLA B*0801 [10]: 0.086
Normalized average relative binding affinity (ARB), HLA B*3501 [11]: 0.068
Normalized average relative binding affinity (ARB), HLA B*5401 [12]: 0.025
Normalized average relative binding affinity (ARB), H-2 Kk [13]: 0.19
Normalized average relative binding affinity (ARB), HLA A*3201 [14]: 0.20
Normalized average relative binding affinity (ARB), H-2 Dd [15]: 0.0040
Normalized average relative binding affinity (ARB), HLA B*1503 [16]: 0.063
Normalized average relative binding affinity (ARB), HLA B*5802 [17]: 0.17
Normalized average relative binding affinity (ARB), HLA A*0201 [18]: 0.098
